From patent publication US8889902B2, “Acetylsalicylic acid salts” (priority 2009, dated 2014)
Values joined by “and” are separate entries in the source; they are usually repeats but may differ in a detail not shown here. Identical values can stand only once. Marks after values point to notes of the source that are not given here.

What was measured:
[1] = tested on: abdominal constrictions in writhing test model; assay: Mouse writhing test (acetic acid i.p.); assay type: in vivo, mice; details: for No. of constrictions: 10 min observation
Protocol: In investigating the analgesic, anti-inflammatory and antipyretic effects of MASA methods widely used in evaluation of NSAIDs were employed. Mongrel white laboratory mice and Wistar rats were used in experiments. Animals were kept in groups of 7-8 in adequate cages in climatized rooms at 22±1° C., relative humidity 60±5% and 12/12-hour light/darkness cycle with free access to feed and water.
Aqueous solutions of test substances were prepared ex tempore. In each experimental series a control group was used that received an identical volume of water p.o.
Nociceptive reaction was evaluated by chemical irritation method—writhing test (Charaborty A et al, Indian J of Pharmacology 2004; 36(3):148-150). Animals received i.p. 0.25 ml of 0.75% aqueous acetic acid solution: After the injection animals were placed separately in special boxes and observed for 10 minutes. The number of abdominal constrictions was registered. Analgesic activity was manifested by reduction of the number of abdominal constrictions in the 10 minutes period. Test substances were introduced 30 min before the irritating agent. The level of analgesia was expressed as analgesic index calculated as follows: A=(Cc−Ct)/Cc·100%, where A—Analgesic index Cc—number of contractions in control group, Ct—number of contractions in the test group.

[2] = tested on: response to thermal irritation (hot plate); assay: Mouse hot plate test; assay type: in vivo, mice
carrageneen paw oedema [3] = assay: Acute inflammatory oedema model (carrageneen test); assay type: in vivo, rats; details: 4 h
Protocol: Experiments were conducted using carrageneen test (Winter C et al, Proc Soc Exptl Biol and Med 1962; III(3):544-547. Wei Jia et al, Journal of Ethnopharmacology 2003(89):139-141; Sutharson Lingadurai et al, African Journal of traditional, complementary and alternative medicines, 2007, 4(4):411-416) on 42 rats with body mass of 226-274 g. Single injection of carrageneen (Sigma) solution (1%) in saline (0.1 ml) was introduced in rat hind leg paw. Test substances were introduced p.o. (through catheter into rat stomach) 30 min. after the injection of carrageneen. The volume of paw was measured by oncometer at baseline and 4 hours after the injection of carrageneen.
The percentage of prevention (inhibition of oedema) was calculated according to formula: P(%)=(1−Vo/Vc)×100, where P—Prevention in % (inhibition of oedema) Vo—difference between the paw volume at baseline and at experimental conditions; Vc—analogical difference in control group.

carrageneen paw oedema [4] = assay: Carrageneen oedema, preventive mode; assay type: in vivo, rats; details: preventive 6 times, 4 h
Protocol: The […] oedema was investigated by established method ([…], Patol Fiziol Eksp Ter, 2002(2):24-7 (Rus) on 42 rats with body mass of 178-220 g: […] The prevention index was calculated as indicated in previous section.

[5] = tested on: serum lipid levels (C, HDL, LDL, TG); assay: Acute hyperlipidemia model (Triton WR1339); assay type: in vivo, Wistar rats; details: TR 250 mg/kg, serum 24 h
Protocol: Male Wistar rats with body mass of 250-270 g were used. Animals were held in groups of 6-8 in climatized rooms at 22±1° C., relative humidity 60±5%, and 12/12-hour light/dark cycle with free access to water and feed. […] The solution of test substances or water was introduced to control and TR group animals p.o. one hour before and 20 hours after the introduction of TR as described below.
Blood for biochemical analysis was collected on the next day (24 hours after the injection of TR) by heart punction under ether narcosis. Serum was separated by centrifugation and analyzed for total cholesterol, HDL, LDL and TG levels by commercial kits.

tail bleeding = assay: Tail bleeding time during thrombosis experiment; assay type: in vivo, rats; details: for Tail bleeding time, %: control = 100
Protocol: Additionally during the thrombosis experiment rat tail bleeding time was measured. The tail was transected 5 mm from the tip with scalpel and the tail was immediately immersed into 37° C. warm isotonic saline until termination of bleeding was noted. Termination of bleeding was defined as the time of complete stop of bleeding with no recurrence of bleeding within the next 30 s.

rat ear skin temperature [6] = assay: Ear skin temperature rise caused by NA, s.c. administration; assay type: in vivo, Wistar rats; details: 45 mg/kg s.c. alone
Protocol: (§1) Male Wistar rats (280-330 g) were used. Animals were held in groups of 6 in climatized rooms at 22±1° C., relative humidity 60±5%, and 12/12-hour light/dark cycle with free access to drinking water and feed (R3—Lactamin AB, Sweden). For registration of changes in skin temperature of intact rats contactless temperature recording method was used (Papaliodis D et al, Br J Pharmacol 2008; 153:1382-1387). Temperature measurements were performed with a hand-held infrared thermometer (Model Proscan 510, TFA-Dostman). Animals were habituated to handling and to the infrared probe for 3 days before use. Temperature readings from the dorsal side of each ear were recorded without anaesthesia at beginning and during experiment. The ear temperature was measured every 5 min. for a period of up to 60 min. The animals were returned to their cages between measurements. NA, MD and MASA were dissolved in saline and pH was corrected immediately before usage. LA (MK 0524, Cayman Chemicals) was first dissolved in DMSO and then freshly diluted with 0.9% NaCl, on each day of the experiment. The rate of NA and LA combination was based on Summary of Product Characteristics for Tredaptive™ (nicotinic acid/laropiprant) 1000 mg/20 mg modified-release tablets.
The influence of LA, MD or MASA alone on skin temperature was checked. Each investigated compound was introduced s.c. simultaneously with NA as LA+NA [0] or 30 min in advance to NA as LA+NA [30].

rat ear skin temperature [7] = assay: Ear skin temperature rise caused by NA, p.o. administration; assay type: in vivo, Wistar rats; details: for Max incr. %: NA alone = 100
Protocol: as §1
9.2.3. Investigation of the Effect of MASA/NA and MD/NA Combination on Skin Temperature at Simultaneous or 45 Min Advance p.o. Administration

[8] = 75 mg/kg p.o. 30 min after carrageneen
[9] = 150 mg/kg p.o. 30 min after carrageneen
[10] = 300 mg/kg p.o. 30 min after carrageneen
[11] = 10 mg/kg/d p.o., repeated, 3 days
[12] = 100 mg/kg p.o. 30 min after carrageneen

With `CC(=O)Oc1ccccc1C(=O)[O-].C[N+](C)(C)NCCC(=O)O` [MASA, 3-(trimethylammonioamino)propanoate Acetylsalicylic Acid Addition Salt] the Analgesic index ([1]; 75 mg/kg p.o.) was 4.5, the “Animals with positive reaction/total number” value ([1]; 75 mg/kg p.o. 30 min before acetic acid) was 8/8 and the No. of constrictions ([1]; 75 mg/kg p.o.) was 12.13 ± 0.61**^$$. For the same compound, the Analgesic index ([1]; 150 mg/kg p.o.) was 5.2, the “Animals with positive reaction/total number” value ([1]; 150 mg/kg p.o. 30 min before acetic acid) was 7/8 and the No. of constrictions ([1]; 150 mg/kg p.o.) was 10.63 ± 1.10**^$$. The Analgesic index ([1]; 300 mg/kg p.o.) was 7.3, the “Animals with positive reaction/total number” value ([1]; 300 mg/kg p.o. 30 min before acetic acid) was 5/8 and the No. of constrictions ([1]; 300 mg/kg p.o.) was 6.00 ± 1.39***^$$$. For the same compound, the “Latent period at 30 min after introduction of test substance” value (“Latent period at 30 min” for short) ([2]; 75 mg/kg p.o.) was 5.4 ± 0.38 s, the “Latent period at 60 min after introduction of test substance” value (“Latent period at 60 min” below) ([2]; 75 mg/kg p.o.) was 4.6 ± 0.26 s and the “Latent period at 30 min” value ([2]; 150 mg/kg p.o.) was 9.5 ± 0.53***^&&& s. For the same compound, the “Latent period at 60 min” value ([2]; 150 mg/kg p.o.) was 7.1 ± 0.55 s, the “Latent period at 30 min” value ([2]; 300 mg/kg p.o.) was 9.6 ± 1.12**^& s and the “Latent period at 60 min” value ([2]; 300 mg/kg p.o.) was 8.6 ± 0.60 s. The “Index, % (inhibition of oedema)” value (carrageneen paw oedema [3]; [8]) was 18%, the “Volume of paw after injection of carrageneen” value (shortened to “Volume of paw”) (carrageneen paw oedema [3]; [8]) was 2.51 ± 0.11 mL and the “Index, % (inhibition of oedema)” value (carrageneen paw oedema [3]; [9]) was 93%. For the same compound, the “Volume of paw” value (carrageneen paw oedema [3]; [9]) was 1.54 ± 0.15***^$& ml, the “Index, % (inhibition of oedema)” value (carrageneen paw oedema [3]; [10]) was 91% and the “Volume of paw” value (carrageneen paw oedema [3]; [10]) was 1.79 ± 0.15 mL. For the same compound, the “Reduction in % (oedema)” value (carrageneen paw oedema [4]; 150 mg/kg p.o.) was 94%, the “Volume of paw” value (carrageneen paw oedema [4]; 150 mg/kg p.o.) was 1.40 ± 0.09**^$ ml and the “Reduction in % (oedema)” value (carrageneen paw oedema [4]; 300 mg/kg p.o.) was 86%. For the same compound, the “Volume of paw” value (carrageneen paw oedema [4]; 300 mg/kg p.o.) was 1.41 ± 0.04**^$ ml, the C ([5]; 75 mg/kg p.o.) was 341.9 ± 16.3 mg/dL and the HDL ([5]; 75 mg/kg p.o.) was 68.1 ± 8.7 mg/dL. For the same compound, the LDL ([5]; 75 mg/kg p.o.) was 270.1 ± 12.8 mg/dL, the TG ([5]; 75 mg/kg p.o.) was 861 ± 105.7 mg/dL and the C ([5]; 150 mg/kg p.o.) was 249.6 ± 22.2**^$& mg/dl and 249.6 ± 22.2**^$ mg/dl and 249.6 ± 22.2**^& mg/dl. The HDL ([5]; 150 mg/kg p.o.) was 58.2 ± 8.1 mg/dL, the LDL ([5]; 150 mg/kg p.o.) was 182.4 ± 19.6**^$& mg/dl and 182.4 ± 19.6**^$ mg/dl and 182.4 ± 19.6**^& mg/dl and the TG ([5]; 150 mg/kg p.o.) was 668 ± 104.4**^$& mg/dl and 668 ± 70.9**^$ mg/dl and 668 ± 70.9**^& mg/dl. The C ([5]; 300 mg/kg p.o.) was 219.0 ± 16.7**^$#& mg/dl, the HDL ([5]; 300 mg/kg p.o.) was 56.3 ± 8.6 mg/dL and the LDL ([5]; 300 mg/kg p.o.) was 158.6 ± 19.4**^$#& mg/dl. For the same compound, the TG ([5]; 300 mg/kg p.o.) was 548 ± 73.2***^&$# mg/dl, the Tail bleeding time (tail bleeding; 10 mg/kg p.o., single dose) was 12.1 ± 2.20 min and the “Tail bleeding time, %” value (tail bleeding; 10 mg/kg p.o., single dose) was 136%. The Tail bleeding time (tail bleeding; [11]) was 13.1 ± 2.63 min, the “Tail bleeding time, %” value (tail bleeding; [11]) was 152% and the Maximum temperature (rat ear skin temperature [6]) was 29.2 ± 0.38^$$$ ° C. The “Temp. 15 min” value (rat ear skin temperature [7]; MASA 150 mg/kg p.o. alone) was 29.9 ± 0.33^$$ ° C, the “Temp. 30 min” value (rat ear skin temperature [7]; MASA 150 mg/kg p.o. alone) was 29.5 ± 0.35^$$$ ° C and the “Temp. 45 min” value (rat ear skin temperature [7]; MASA 150 mg/kg p.o. alone) was 29.6 ± 0.39^$$ ° C. The Max incr. % (rat ear skin temperature [7]; MASA 150 mg/kg p.o. alone) was 6%.
In the case of `C[N+](C)(C)NCCC(=O)[O-].O.O` [MD, 3-(Trimethylammonioamino)propanoate dihydrate], the Analgesic index ([1]; 100 mg/kg p.o.) is reported as −0.4, the “Animals with positive reaction/total number” value ([1]; 100 mg/kg p.o. 30 min before acetic acid) is reported as 8/8 and the No. of constrictions ([1]; 100 mg/kg p.o.) is reported as 22.10 ± 1.47. For the same compound, the “Latent period at 30 min” value ([2]; 100 mg/kg p.o.) was 9.5 ± 0.68***^&& s, the “Latent period at 60 min” value ([2]; 100 mg/kg p.o.) was 8.3 ± 0.53 s and the “Index, % (inhibition of oedema)” value (carrageneen paw oedema [3]; [12]) was 43%. For the same compound, the “Volume of paw” value (carrageneen paw oedema [3]; [12]) was 2.13 ± 0.12 mL, the “Reduction in % (oedema)” value (carrageneen paw oedema [4]; 100 mg/kg p.o.) was 34% and the “Volume of paw” value (carrageneen paw oedema [4]; 100 mg/kg p.o.) was 1.66 ± 0.10 mL. The C ([5]; 150 mg/kg p.o.) was 345.6 ± 34.1 mg/dL, the HDL ([5]; 150 mg/kg p.o.) was 63.8 ± 9.3 mg/dL and the LDL ([5]; 150 mg/kg p.o.) was 273.9 ± 31.6 mg/dL. The TG ([5]; 150 mg/kg p.o.) was 1022 ± 80.7 mg/dL, the Tail bleeding time (tail bleeding; 25 mg/kg p.o., single dose) was 10.5 ± 1.01 min and the “Tail bleeding time, %” value (tail bleeding; 25 mg/kg p.o., single dose) was 118%. For the same compound, the Maximum temperature (rat ear skin temperature [6]) was 29.6 ± 0.31^$$$ ° C, the “Temp. 15 min” value (rat ear skin temperature [7]; MD 100 mg/kg p.o. alone) was 30.1 ± 0.39^$$ ° C and the “Temp. 30 min” value (rat ear skin temperature [7]; MD 100 mg/kg p.o. alone) was 29.8 ± 0.38^$$$ ° C. The “Temp. 45 min” value (rat ear skin temperature [7]; MD 100 mg/kg p.o. alone) was 30.0 ± 0.34^$$ ° C and the Max incr. % (rat ear skin temperature [7]; MD 100 mg/kg p.o. alone) was 6%.
